Literature values, collected in US9328120B2, “6-cycloalkyl-pyrazolopyrimidinones for the treatment of CNS disorders” (Boehringer Ingelheim International GmbH, priority 2010, dated 2016).

Key:
[1] = molecular target: human PDE9A (Homo sapiens (Human), UniProt O76083); settings: for inhibition on the isolated enzyme: concentrations of up to 100 micromolar (μM)
[2] = molecular target: Murine PDE9A (Mus musculus (Mouse), UniProt O70628); settings: concentrations below 200 micromolar
Chain of Murine PDE9A (O70628 whole entry): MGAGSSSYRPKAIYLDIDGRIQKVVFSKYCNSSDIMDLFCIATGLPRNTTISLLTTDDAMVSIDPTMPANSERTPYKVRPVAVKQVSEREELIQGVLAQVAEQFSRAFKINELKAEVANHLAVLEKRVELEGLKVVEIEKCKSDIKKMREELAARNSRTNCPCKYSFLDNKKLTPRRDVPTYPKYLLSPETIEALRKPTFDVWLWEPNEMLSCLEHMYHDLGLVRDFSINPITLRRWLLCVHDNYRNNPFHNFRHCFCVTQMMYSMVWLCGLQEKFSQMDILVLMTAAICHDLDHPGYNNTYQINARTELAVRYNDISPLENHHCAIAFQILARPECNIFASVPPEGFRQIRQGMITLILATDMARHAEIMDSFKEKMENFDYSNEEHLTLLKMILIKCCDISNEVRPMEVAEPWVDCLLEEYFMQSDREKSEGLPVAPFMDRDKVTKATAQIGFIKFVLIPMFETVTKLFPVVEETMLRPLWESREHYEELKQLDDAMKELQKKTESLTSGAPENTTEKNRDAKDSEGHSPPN

Chain of human PDE9A (O76083 whole entry): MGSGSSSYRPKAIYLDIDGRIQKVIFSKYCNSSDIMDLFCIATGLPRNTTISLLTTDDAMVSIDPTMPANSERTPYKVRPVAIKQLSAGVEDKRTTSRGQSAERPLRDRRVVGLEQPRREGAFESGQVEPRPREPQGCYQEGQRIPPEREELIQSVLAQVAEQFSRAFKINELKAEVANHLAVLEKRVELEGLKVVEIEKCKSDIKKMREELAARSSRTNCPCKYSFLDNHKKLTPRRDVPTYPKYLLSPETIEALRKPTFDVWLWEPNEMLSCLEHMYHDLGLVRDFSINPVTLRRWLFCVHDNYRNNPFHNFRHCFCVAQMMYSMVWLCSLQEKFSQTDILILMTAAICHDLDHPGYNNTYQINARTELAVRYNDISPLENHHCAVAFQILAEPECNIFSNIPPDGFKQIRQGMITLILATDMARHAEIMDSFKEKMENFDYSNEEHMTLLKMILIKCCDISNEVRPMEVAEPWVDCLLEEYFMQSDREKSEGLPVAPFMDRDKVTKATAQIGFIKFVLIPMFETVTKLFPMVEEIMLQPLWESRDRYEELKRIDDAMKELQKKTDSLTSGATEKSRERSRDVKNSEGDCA

Structure (SMILES): COc1ccc(C2CNC(=O)C2)cc1OC1CCCC1 (stereo not shown) [rolipram]
- inhibition on the isolated enzyme [1]: no inhibition

Structure (SMILES): CC(C)Cn1c(=O)n(C)c(=O)c2[nH]cnc21 [IBMX]
- inhibition of murine PDE9A [2]: not inhibited
- inhibition on the isolated enzyme [1]: no inhibition

Structure (SMILES): OCCN(CCO)c1nc(N2CCCCC2)c2nc(N(CCO)CCO)nc(N3CCCCC3)c2n1 [dipyridamole]
- inhibition on the isolated enzyme [1]: no inhibition

Structure (SMILES): CCOC(=O)C1=C[C@]2(CC)CCCN3CCc4c(n1c1ccccc41)[C@@H]32 [vinpocetine]
- inhibition on the isolated enzyme [1]: no inhibition

Structure (SMILES): CC(=O)Nc1ccc(-c2c[nH]c(=O)cn2)cc1 [SKF94120]
- inhibition on the isolated enzyme [1]: no inhibition

Structure (SMILES): CCCOc1ccccc1-c1nc2nn[nH]c2c(=O)[nH]1 [zaprinast]
- IC50 ([1]; isolated human PDE9A enzyme): 35 micromolar (μM)
